Data published in patent publication US20050119301A1, “Treatment of restenosis” (priority 2001, published 2005).

Key:
[1] = system: LDL; experiment: LDL antioxidation test (CuCl2-initiated LDL oxidation, lag time); format: biochemical, human; details: Table 3, 10 μM; for Lag Time: control 20 min
[2] = molecular target: T1, Soybean 15-lipoxygenase (SLO) (Glycine max, UniProt P08170); experiment: Inhibition of lipoxygenase, SLO-induced oxidation of linoleate; format: biochemical; parameters: dose or concentration left out as unconfirmed
T1 construct: purchased Sigma, St. Louis, Mo
T1 sequence (P08170 1-839): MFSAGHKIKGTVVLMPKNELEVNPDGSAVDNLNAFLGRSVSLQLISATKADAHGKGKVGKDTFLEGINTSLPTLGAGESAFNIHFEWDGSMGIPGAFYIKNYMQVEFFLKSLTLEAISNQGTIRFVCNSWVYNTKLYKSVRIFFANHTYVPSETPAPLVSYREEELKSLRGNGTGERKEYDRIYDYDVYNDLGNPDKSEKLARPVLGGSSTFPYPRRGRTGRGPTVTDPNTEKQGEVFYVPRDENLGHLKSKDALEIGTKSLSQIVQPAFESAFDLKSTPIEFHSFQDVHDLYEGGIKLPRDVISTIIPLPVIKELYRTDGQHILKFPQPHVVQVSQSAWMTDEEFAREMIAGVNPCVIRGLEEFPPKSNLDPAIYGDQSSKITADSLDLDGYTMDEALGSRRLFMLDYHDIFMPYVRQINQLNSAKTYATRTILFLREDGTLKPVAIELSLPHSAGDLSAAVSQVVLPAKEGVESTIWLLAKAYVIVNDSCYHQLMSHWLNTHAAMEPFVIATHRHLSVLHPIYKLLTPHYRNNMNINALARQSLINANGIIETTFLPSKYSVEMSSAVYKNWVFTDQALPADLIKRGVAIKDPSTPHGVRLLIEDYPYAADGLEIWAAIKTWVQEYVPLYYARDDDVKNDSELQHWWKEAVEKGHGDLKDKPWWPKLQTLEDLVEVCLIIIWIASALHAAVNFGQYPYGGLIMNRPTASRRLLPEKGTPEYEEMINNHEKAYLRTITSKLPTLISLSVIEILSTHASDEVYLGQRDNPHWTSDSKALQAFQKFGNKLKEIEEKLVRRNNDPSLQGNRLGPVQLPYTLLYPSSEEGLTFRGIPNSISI
Experimental: Soybean 15-lipoxygenase (SLO) is a suitable model of 15-lipoxygenase and was therefore used to assess the ability of Cpd. 7, Cpd. 8 and Cpd. 12 to inhibit this enzyme. SLO-induced oxidation of linoleate was performed as described previously (Upston et al., 1996). Briefly, linoleate (100 mM) in PBS was oxidized by SLO (60 U/mL) in the absence and presence of 10 mM Cpd. 7, Cpd. 8 or Cpd. 12, or 100 mM eicosatetraynoic acid (ETYA, positive control). Formation of linoleate hydroperoxide was monitored by UV 234 nm using the Perkin Elmer's UV/Vis Lambda 40 spectrophotomneter. The test was performed twice as single analysis. An appropriate concentration of alcohol (ethanol and isopropanol; 0.13% -0.2% v/v) was included in the respective control samples.

[3] = system: horseradish peroxidase (HRP) plus hydrogen peroxide (H2O2); experiment: Peroxidase-induced (HRP/H2O2) oxidation of linoleate; format: biochemical, horse radish; parameters: dose or concentration left out as unconfirmed
Source text: The test is similar to the peroxyl scavenging described in section 4.5 above, except that horseradish peroxidase (HRP) plus hydrogen peroxide (H2O2), were used instead of the peroxyl radical generator. Increased level of heme is considered as a potential risk factor for atherosclerosis, and heme-containing proteins may be involved in the oxidative modification of LDL. In the presence of H2O2, heme proteins give rise to a powerful oxidant (referred to as compound I) that can oxidatively modify lipids, including those in LDL. We therefore tested the ability of the isoflavone to inhibit such lipid oxidation using horse radish peroxidase as the model heme protein. HRP/H2O2-induced oxidation of linoleate was as described principally by Witting et al (1997) by replacing LDL with linoleate. Linoleate stock was added to PBS at 37° C. to give a final concentration of 300 mM and oxidized by HRP (40 U/mL)/H2O2 (2 mM) in the absence and presence of either 10 mM of Cpd. 7, Cpd. 8 or Cpd. 12, or 25 mM BHT (positive control). Formation of linoleate hydroperoxide was monitored by UV 234 nm using the Perkin Elmer's UV/Vis Lambda 40 spectrophotometer. The test was performed twice as single analysis. An appropriate concentration of alcohol (ethanol and isopropanol; 0.13% -0.2% v/v) was included in the respective control samples.

[4] = system: LDL; experiment: LDL antioxidation test (CuCl2-initiated LDL oxidation, lag time); format: biochemical, human; details: 10 mM; Promensil 5 mg/ml
Experimental: The LDL antioxidation test measures the ability of a compound to directly scavenge free radicals or to chelate transition metals. Thus in this series of experiments, the isoflavones and their derivatives were tested for their ability to act as free radical scavengers.
Fresh whole blood was obtained by venipuncture from healthy human volunteers under 25 years of age and supplemented immediately with EDTA (91 mg/ml) and BHT (4.4 mg/ml). LDL was prepared by step-wise ultracentrifugation within a density gradient of 1.02-1.05 g/cm^3. EDTA and BHT were present throughout all the steps of the isolation. The EDTA/BHT containing stock solution (15-30 mg LDL/ml) was stored in the dark in a nitrogen atmosphere until use, but never longer than two weeks.
Before oxidation experiments, the LDL stock solution was dialyzed in the 100-fold volume of 0.01 M phosphate buffer pH 7.4, 0.16 M NaCl, 0.1 mg/ml chloroamphenicol, which was made oxygen-free by vacuum degassing following by purging with nitrogen. The buffer was changed four times. This EDTA- and BHT-free LDL stock solution was used for all oxidation studies. The stock solution was stored not longer than 24 hr at 4° C. For performing the oxidation experiments, the EDTA- and BHT-free LDL stock solution was diluted with oxygen-saturated 0.01 M phosphate buffer pH 7.4, 0.16 M NaCl and the oxidation was initiated by the addition of a freshly prepared aqueous CuCl2 solution. The final conditions were in all experiments: room temperature, 0.25 mg LDL/ml and […] (see Esterbauer et. al., 1989)
The antioxidant activities of the following compounds were tested: daidzein ([…]), genistein ([…]), glycitein ([…]), biochanin ([…]), formononetin ([…]), Promensil™ (Novogen) (2.5 mg/ml, 5 mg/ml), Cpd. 5 (10 mM), Cpd. 7 (10 mM), Cpd. 8 (10 mM), Cpd. 12 (10 mM), Cpd. 4 (10 mM) and Cpd. 6 (10 mM). In each experiment, controls were used to compare the relative effectiveness of the Novogen isoflavone derivatives to common and well-known antioxidants such as ascorbate (2.5 mM; Vitamin C).

## O=C1c2ccc(O)cc2OCC1c1ccc(O)cc1 (centres unmarked) [Cpd. 5]
[1]
  % Increase in Time: 0%
  Lag Time: 20 min

## Oc1ccc(C2COc3cc(O)ccc3C2O)cc1 (centres unmarked) [Cpd. 7]
[2]
  inhibition of soybean 15-lipoxygenase (in words): neither Cpd. 7 nor Cpd. 8 were able to inhibit SLO
[1]
  % Increase in Time: 100%
  Lag Time: 50 min
[3]
  inhibition of linoleic acid oxidation by HRP/H2O2 compound I (in words): able to inhibit linoleic acid oxidation by compound I as effectively as 25 mM BHT
[4]
  ability to scavenge free radicals (in words): significantly less active than Cpd. 8 and Cpd. 12 but still almost as active as ascorbate

## Oc1ccc(C2COc3cc(O)ccc3C2O)cc1 (centres unmarked) [Cpd. 8]
[2]
  inhibition of soybean 15-lipoxygenase (in words): neither Cpd. 7 nor Cpd. 8 were able to inhibit SLO
[1]
  % Increase in Time: >600%
  Lag Time: >140 min
[3]
  inhibition of linoleic acid oxidation by HRP/H2O2 compound I (in words): able to inhibit linoleic acid oxidation by compound I as effectively as 25 mM BHT
[4]
  ability to scavenge free radicals (in words): very active scavengers

## Oc1ccc(C2=Cc3ccc(O)cc3OC2)cc1 [Cpd. 12]
[2]
  inhibition of soybean 15-lipoxygenase (in words): effective inhibitor of lipoxygenase type-1
[1]
  % Increase in Time: >600%
  Lag Time: >140 min
[3]
  inhibition of linoleic acid oxidation by HRP/H2O2 compound I (in words): inhibitory activity of Cpd. 7 and Cpd. 8 was greater than of an equimolar amount of Cpd. 12
[4]
  ability to scavenge free radicals (in words): very active scavengers
